# Experimental data as given in PMC9530963, “A cathelicidin antimicrobial peptide from Hydrophis cyanocinctus inhibits Zika virus infection by downregulating expression of a viral entry factor” (The Journal of Biological Chemistry, 2022).
# Tests used:
# AXL [1] = test: AXL level in A549 cells (Western blot, immunofluorescence); type: cell-based, Homo sapiens; details: 1.25, 2.5, and 5 μM, 24 h, with and without ZIKV challenge
# Procedure: Figure 4 Hc-CATH downregulates AXL in A549 cell.A, schematic diagram of B and C. B, A549 cells were seeded in 24-well plates (5 × 10^4 cells/well) and cultured in DMEM containing 2% FBS. Hc-CATH (1.25, 2.5, and 5 μM) or same volume of PBS (peptide solvent) was added to cells and incubated at 37 °C for 24 h. The level of AXL was tested by Western blot. C, A549 cells were seeded in 8-well cover slip chambers (5 × 10^4 cells/well) and cultured in DMEM containing 2% FBS. Hc-CATH (1.25, 2.5, and 5 μM) or PBS was added to cells and incubated at 37 °C for 24 h. The level of AXL was tested by immunofluorescence staining. The scale bar represents 50 μm. D, schematic diagram of E and G. E and G, A549 cells were seeded in 24-well plates (5 × 10^4 cells/well) and cultured in DMEM containing 2% FBS. Hc-CATH (1.25, 2.5, and 5 μM) or PBS was added to cells and incubated at 37 °C for 2 h. Cells were washed with PBS and incubated with ZIKV (MOI = 1). After incubation at 37 °C for 2 h, cells were washed with PBS and cultured in DMEM containing 2% FBS.
# The effect of Hc-CATH on AXL was further confirmed in A549 and U251 cells. A549 or U251 cells were incubated with Hc-CATH (1.25, 2.5, and 5 μM) or PBS at 37 °C for 24 h, and the level of AXL was detected by WB and IF, respectively. Upon ZIKV challenge, A549 or U251 cells were incubated with Hc-CATH (1.25, 2.5, and 5 μM) or PBS at 37 °C for 2 h. […]
# AXL [2] = test: AXL level in Vero cells (Western blot, immunofluorescence); type: cell-based, Chlorocebus aethiops
# Procedure: Figure 3 Hc-CATH downregulates AXL in Vero cell.A, schematic diagram of B and C. B, Vero cells were seeded in 24-well plates (5 × 10^4 cells/well) and cultured in DMEM containing 2% FBS. Hc-CATH (1.25, 2.5, and 5 μM), AC5 (2.5 μM), LL-37 (2.5 μM), or same volume of PBS (peptide solvent) was added to cells. After culture at 37 °C for 6, 12, and 24 h, the levels of ZIKV entry factors, including AXL, TYRO3, and TIM-1, were tested by Western blot, respectively. C, Vero cells were seeded in 8-well cover slip chambers (5 × 10^4 cells/well) and cultured in DMEM containing 2% FBS. Hc-CATH (1.25, 2.5, and 5 μM), AC5 (2.5 μM), LL-37 (2.5 μM), or same volume of PBS (peptide solvent) was added to cells. After culture at 37 °C for 24 h, the level of AXL was tested by immunofluorescence staining. The scale bar represents 50 μm. D, schematic diagram of E. E, Vero cells were seeded in 24-well plates (5 × 10^4 cells/well) and cultured in DMEM containing 2% FBS. Hc-CATH (1.25, 2.5, and 5 μM), AC5 (2.5 μM), LL-37 (2.5 μM), or same volume of PBS (peptide solvent) was added to cells and incubated at 37 °C for 2 h. […] Ratio of AXL to β-actin was analyzed by ImageJ.
# Vero cells were incubated with Hc-CATH (1.25, 2.5, and 5 μM), AC5 (2.5 μM), LL-37 (2.5 μM), or PBS (solvent of peptide). […] The levels of ZIKV entry factors, including AXL, TYRO3, and TIM-1, were detected by WB analysis. […]
# Vero, A549 or U251 cells = details: 1.25, 2.5, and 5 μM, 48 h, 37 °C, CCK-8
# Procedure: Vero, A549 or U251 cells (1×10^4 cells/well) were seeded
# in 96-well plates . Series of two -fold peptide dilutions in DMEM were added to each well to
# give final concentrations from 0.78125 to 50 μM. After incubation at 37℃ for 48 h, cell
# counting assay kit (CCK -8) was applied to determine the cytotoxicity. ***P < 0.001, ns, not
sequence,measurement,setting,value
KFFKRLLKSVRRAVKKFRKKPRLIGLSTLL [Hc-CATH],level of AXL in A549 cells,AXL [1],effectively decreased the level of AXL
same,level of AXL in Vero cells,"AXL [2]; 1.25, 2.5, and 5 μM, 24 h, confirmed by immunofluorescence, relative to PBS",reduced the level of AXL
same,level of AXL in Vero cells upon ZIKV infection,"AXL [2]; peptide 2 h, then ZIKV MOI = 1, 24 h post Hc-CATH addition",decreased the level of AXL
same,cytotoxicity against mammalian cells,"Vero, A549 or U251 cells",did not have cytotoxicity
